In US8192962B2, “Processes for detecting toxic substances” (Daikin Industries, Ltd., priority 2001, dated 2012):

Test system: Genes belonging to other category
Assay: DNA chip mRNA expression in yeast, genes belonging to other category (Table 9)
Type: cell-based, Saccharomyces cerevisiae S288C
In short: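 Values are treated/untreated fluorescence ratios from a whole-genome yeast DNA chip hybridized over 12 hours at 65° C with Cy3- or Cy5-labelled cDNA from poly(A) mRNA. Log-phase S288C yeast in YPD at 25° C had received a single toxic chemical for two hours, dosed to slow growth without killing.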

Structure (SMILES): N#Cc1c(Cl)c(Cl)c(Cl)c(C#N)c1Cl [(9), 2,4,5,6-tetrachloro-1,3-benzenedicarbonitrile]
- The level of expressed mRNA in the presence of chemical substance/The level of expressed mRNA in the absence of chemical substance (yeast gene YJR091C): 2.4
- The level of expressed mRNA in the presence of chemical substance/The level of expressed mRNA in the absence of chemical substance (yeast gene YJR099W): 1.4
- The level of expressed mRNA in the presence of chemical substance/The level of expressed mRNA in the absence of chemical substance (yeast gene YJR110W): 4.9
- The level of expressed mRNA in the presence of chemical substance/The level of expressed mRNA in the absence of chemical substance (yeast gene YJR122W): 5.3
- The level of expressed mRNA in the presence of chemical substance/The level of expressed mRNA in the absence of chemical substance (yeast gene YKL008C): 0.3
- The level of expressed mRNA in the presence of chemical substance/The level of expressed mRNA in the absence of chemical substance (yeast gene YKL013C): 1.5
- The level of expressed mRNA in the presence of chemical substance/The level of expressed mRNA in the absence of chemical substance (yeast gene YKL039W): 1.3
- The level of expressed mRNA in the presence of chemical substance/The level of expressed mRNA in the absence of chemical substance (yeast gene YKL041W): 1.6
- The level of expressed mRNA in the presence of chemical substance/The level of expressed mRNA in the absence of chemical substance (yeast gene YKL079W): 2.3
- The level of expressed mRNA in the presence of chemical substance/The level of expressed mRNA in the absence of chemical substance (yeast gene YKL096W): 0.0
- The level of expressed mRNA in the presence of chemical substance/The level of expressed mRNA in the absence of chemical substance (yeast gene YKL139W): 1.6
- The level of expressed mRNA in the presence of chemical substance/The level of expressed mRNA in the absence of chemical substance (yeast gene YKL165C): 0.4
- The level of expressed mRNA in the presence of chemical substance/The level of expressed mRNA in the absence of chemical substance (yeast gene YKL193C): 1.0
- The level of expressed mRNA in the presence of chemical substance/The level of expressed mRNA in the absence of chemical substance (yeast gene YKL196C): 4.3
- The level of expressed mRNA in the presence of chemical substance/The level of expressed mRNA in the absence of chemical substance (yeast gene YKR014C): 2.4
- The level of expressed mRNA in the presence of chemical substance/The level of expressed mRNA in the absence of chemical substance (yeast gene YKR068C): 2.4
- The level of expressed mRNA in the presence of chemical substance/The level of expressed mRNA in the absence of chemical substance (yeast gene YLL054C): 2.4
- The level of expressed mRNA in the presence of chemical substance/The level of expressed mRNA in the absence of chemical substance (yeast gene YLR080W): 2.3
- The level of expressed mRNA in the presence of chemical substance/The level of expressed mRNA in the absence of chemical substance (yeast gene YLR093C): 1.5
- The level of expressed mRNA in the presence of chemical substance/The level of expressed mRNA in the absence of chemical substance (yeast gene YLR118C): 1.1
- The level of expressed mRNA in the presence of chemical substance/The level of expressed mRNA in the absence of chemical substance (yeast gene YLR120C): 1.8
- The level of expressed mRNA in the presence of chemical substance/The level of expressed mRNA in the absence of chemical substance (yeast gene YLR136C): 0.9
- The level of expressed mRNA in the presence of chemical substance/The level of expressed mRNA in the absence of chemical substance (yeast gene YLR178C): 4.3
- The level of expressed mRNA in the presence of chemical substance/The level of expressed mRNA in the absence of chemical substance (yeast gene YLR206W): 1.5
- The level of expressed mRNA in the presence of chemical substance/The level of expressed mRNA in the absence of chemical substance (yeast gene YLR248W): 2.3
- The level of expressed mRNA in the presence of chemical substance/The level of expressed mRNA in the absence of chemical substance (yeast gene YLR250W): 2.7
- The level of expressed mRNA in the presence of chemical substance/The level of expressed mRNA in the absence of chemical substance (yeast gene YLR251W): 2.1
- The level of expressed mRNA in the presence of chemical substance/The level of expressed mRNA in the absence of chemical substance (yeast gene YLR327C): 3.0
- The level of expressed mRNA in the presence of chemical substance/The level of expressed mRNA in the absence of chemical substance (yeast gene YLR356W): 2.3
- The level of expressed mRNA in the presence of chemical substance/The level of expressed mRNA in the absence of chemical substance (yeast gene YLR362W): 3.5
- The level of expressed mRNA in the presence of chemical substance/The level of expressed mRNA in the absence of chemical substance (yeast gene YLR389C): 2.4
- The level of expressed mRNA in the presence of chemical substance/The level of expressed mRNA in the absence of chemical substance (yeast gene YLR391W): 0.4
- The level of expressed mRNA in the presence of chemical substance/The level of expressed mRNA in the absence of chemical substance (yeast gene YLR429W): 0.9
- The level of expressed mRNA in the presence of chemical substance/The level of expressed mRNA in the absence of chemical substance (yeast gene YMR004W): 94.2
- The level of expressed mRNA in the presence of chemical substance/The level of expressed mRNA in the absence of chemical substance (yeast gene YMR027W): 1.1
- The level of expressed mRNA in the presence of chemical substance/The level of expressed mRNA in the absence of chemical substance (yeast gene YMR053C): 2.2
- The level of expressed mRNA in the presence of chemical substance/The level of expressed mRNA in the absence of chemical substance (yeast gene YMR077C): 1.9
- The level of expressed mRNA in the presence of chemical substance/The level of expressed mRNA in the absence of chemical substance (yeast gene YMR091C): 2.1
- The level of expressed mRNA in the presence of chemical substance/The level of expressed mRNA in the absence of chemical substance (yeast gene YMR094W): −0.1
- The level of expressed mRNA in the presence of chemical substance/The level of expressed mRNA in the absence of chemical substance (yeast gene YMR104C): 0.6
- The level of expressed mRNA in the presence of chemical substance/The level of expressed mRNA in the absence of chemical substance (yeast gene YMR110C): 2.3
- The level of expressed mRNA in the presence of chemical substance/The level of expressed mRNA in the absence of chemical substance (yeast gene YMR112C): 1.4
- The level of expressed mRNA in the presence of chemical substance/The level of expressed mRNA in the absence of chemical substance (yeast gene YMR139W): 2.8
- The level of expressed mRNA in the presence of chemical substance/The level of expressed mRNA in the absence of chemical substance (yeast gene YMR197C): 1.9
- The level of expressed mRNA in the presence of chemical substance/The level of expressed mRNA in the absence of chemical substance (yeast gene YMR219W): 2.3
- The level of expressed mRNA in the presence of chemical substance/The level of expressed mRNA in the absence of chemical substance (yeast gene YMR226C): 2.6
- The level of expressed mRNA in the presence of chemical substance/The level of expressed mRNA in the absence of chemical substance (yeast gene YMR238W): 1.3
- The level of expressed mRNA in the presence of chemical substance/The level of expressed mRNA in the absence of chemical substance (yeast gene YMR262W): 3.0
- The level of expressed mRNA in the presence of chemical substance/The level of expressed mRNA in the absence of chemical substance (yeast gene YMR275C): 2.4
- The level of expressed mRNA in the presence of chemical substance/The level of expressed mRNA in the absence of chemical substance (yeast gene YMR276W): 1.8
